Legend:
sedge, umbrella = experiment: Test B flooded paddy test; type: in vivo, Cyperus difformis; details: 500 g ai/ha, Flood; scale of 0 to 100 where 0 is no effect and 100 is complete control
How it was run: (§1)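 Scoring: visual, compared with untreated controls, 0 = no effect through 100 = complete control, taken 13 to 15 days after treatment in the greenhouse. Compounds had been added to paddy water over soil flooded 3 cm deep at the plants' 2-leaf stage.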

rice = experiment: Test B flooded paddy test; type: in vivo, Oryza sativa; details: 500 g ai/ha, Flood; scale of 0 to 100 where 0 is no effect and 100 is complete control
How it was run: as §1

galium = experiment: Test A postemergence herbicide test; type: in vivo, Galium aparine; details: for Plant response rating, Galium: 125 g ai/ha
How it was run: (§2)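 Blackgrass and galium grown in pots of loam soil–sand blend, treated postemergence at 2–10 cm height, one- to two-leaf stage. Plants kept in greenhouse ~10 days, then visually rated for injury against untreated controls on a 0–100 scale (0 no effect, 100 complete control).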

blackgrass = experiment: Test A postemergence herbicide test; type: in vivo, Alopecurus myosuroides
How it was run: as §2

ragweed = experiment: Test A pre-/postemergence herbicide test; type: in vivo, Ambrosia elatior
How it was run: (§3)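 Both application timings used compounds in a non-phytotoxic solvent plus surfactant. Pre-emergence: soil sprayed directly after seeding into loam/sand. Post-emergence: foliage of 2–10 cm seedlings (1–2 leaves) sprayed. Injury rated ~10 days later, 0–100.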

barnyardgrass [1] = experiment: Test A pre-/postemergence herbicide test; type: in vivo, Echinochloa crus-galli
How it was run: as §3

ducksalad = experiment: Test B flooded paddy test; type: in vivo, Heteranthera limosa; details: 500 g ai/ha, Flood; scale of 0 to 100 where 0 is no effect and 100 is complete control
How it was run: as §1

corn = experiment: Test A pre-/postemergence herbicide test; type: in vivo, Zea mays; details: Postemergence
How it was run: as §3

ryegrass, Italian = experiment: Test A pre-/postemergence herbicide test; type: in vivo, Lolium multiflorum
How it was run: as §3

pigweed = experiment: Test A pre-/postemergence herbicide test; type: in vivo, Amaranthus retroflexus
How it was run: as §3

barnyardgrass [2] = experiment: Test B flooded paddy test; type: in vivo, Echinochloa crus-galli; details: 500 g ai/ha, Flood; scale of 0 to 100 where 0 is no effect and 100 is complete control
How it was run: as §1

giant foxtail = experiment: Test A pre-/postemergence herbicide test; type: in vivo, Setaria faberii
How it was run: as §3

kochia = experiment: Test A pre-/postemergence herbicide test; type: in vivo, Kochia scoparia
How it was run: as §3

wheat = experiment: Test A pre-/postemergence herbicide test; type: in vivo, Triticum aestivum; details: Postemergence; for Plant response rating, Wheat: 125 g ai/ha
How it was run: as §3

[3] = 0 to 100 scale, 0 no effect, 100 complete control
[4] = 125 g ai/ha, 0 to 100 scale, 0 no effect, 100 complete control
[5] = 125 g ai/ha, visual rating, 0 to 100 scale, 0 no effect, 100 complete control, approximately 10 days, preemergence
[6] = Postemergence, 125 g ai/ha, 0 to 100 scale, 0 no effect, 100 complete control
[7] = preemergence, 500 g ai/ha, 0 to 100 scale
[8] = visual rating on 0 to 100 scale (0 no effect, 100 complete control), approx. 10 days
[9] = 125 g ai/ha, visual rating on 0 to 100 scale (0 no effect, 100 complete control), approx. 10 days
[10] = 500 g ai/ha, 0 to 100 scale (0 no effect, 100 complete control)
[11] = Postemergence, 125 g ai/ha, visual rating on 0 to 100 scale (0 no effect, 100 complete control), approx. 10 days
[12] = Preemergence, 125 g ai/ha, 0 to 100 scale where 0 is no effect and 100 is complete control
[13] = Preemergence, 500 g ai/ha, visual rating on 0 to 100 scale (0 no effect, 100 complete control)
[14] = Postemergence, 500 g ai/ha, 0 to 100 scale (0 no effect, 100 complete control)

Cc1ccc(C2CNC(=O)C2C(=O)Nc2cccc(F)c2F)cc1 (racemic) [Compound 151]
Plant response rating, Sedge, Umbrella (sedge, umbrella): 0
Plant response rating, Rice (rice): 0
Plant response rating, Galium (galium; [3]): 60
Galium plant response rating (0 to 100 scale, 0 is no effect, 100 is complete control) (galium; 500 g ai/ha): 70
Plant response rating, Blackgrass (blackgrass; [4]): 40
Blackgrass plant response rating (0 to 100 scale, 0 is no effect, 100 is complete control) (blackgrass; 500 g ai/ha): 70
Plant response rating, Ragweed (ragweed; [5]): 90
Plant response rating, Ragweed (ragweed; [6]): 60
Ragweed plant response rating (0 to 100 scale, 0 is no effect, 100 is complete control) (ragweed; Postemergence, 500 g ai/ha): 70
Plant response rating, Ragweed (ragweed; [7]): 90
Plant response rating, Barnyardgrass (barnyardgrass [1]; [5]): 90
Plant response rating, Barnyardgrass (barnyardgrass [1]; [6]): 80
Barnyardgrass plant response rating (0 to 100 scale, 0 is no effect, 100 is complete control) (barnyardgrass [1]; Postemergence, 500 g ai/ha): 90
Plant response rating, Barnyardgrass (barnyardgrass [1]; preemergence, 500 g ai/ha, 0 to 100 scale (0 no effect, 100 complete control)): 90
Plant response rating, Ducksalad (ducksalad): 100
Plant response rating, Corn (corn; [4]): 0
Corn plant response rating (0 to 100 scale, 0 is no effect, 100 is complete control) (corn; 500 g ai/ha): 50
Plant response rating, Ryegrass, Italian (ryegrass, Italian; [5]): 10
Plant response rating, Ryegrass, Italian (ryegrass, Italian; [6]): 30
Ryegrass, Italian plant response rating (0 to 100 scale, 0 is no effect, 100 is complete control) (ryegrass, Italian; Postemergence, 500 g ai/ha): 50
Plant response rating, Ryegrass, Italian (ryegrass, Italian; [7]): 60
Plant response rating, Pigweed (pigweed; [5]): 0
Plant response rating, Pigweed (pigweed; [6]): 50
Pigweed plant response rating (0 to 100 scale, 0 is no effect, 100 is complete control) (pigweed; Postemergence, 500 g ai/ha): 60
Plant response rating, Pigweed (pigweed; [7]): 0
Plant response rating, Barnyardgrass (barnyardgrass [2]): 90
Plant response rating, Foxtail, Giant (giant foxtail; [5]): 80
Plant response rating, Foxtail, Giant (giant foxtail; [6]): 60
Foxtail, Giant plant response rating (0 to 100 scale, 0 is no effect, 100 is complete control) (giant foxtail; Postemergence, 500 g ai/ha): 70
Plant response rating, Foxtail, Giant (giant foxtail; [7]): 90
Plant response rating, Kochia (kochia; [5]): 90
Plant response rating, Kochia (kochia; [6]): 70
Kochia plant response rating (0 to 100 scale, 0 is no effect, 100 is complete control) (kochia; Postemergence, 500 g ai/ha): 80
Plant response rating, Kochia (kochia; [7]): 90
Plant response rating, Wheat (wheat; [3]): 0
Wheat plant response rating (0 to 100 scale, 0 is no effect, 100 is complete control) (wheat; 500 g ai/ha): 60

O=C1NCC(c2ccc(OC(F)F)cc2)C1C(=O)Nc1ccccc1F (stereo not drawn) [Compound 349]
Plant response rating, Sedge, Umbrella (sedge, umbrella): 0
Plant response rating, Rice (rice): 0
Plant response rating, Galium (galium; [8]): 20
Plant response rating, Blackgrass (blackgrass; [9]): 20
Plant response rating, Blackgrass (blackgrass; [10]): 40
Plant response rating, Ragweed (ragweed; [11]): 0
Plant response rating, Ragweed (ragweed; [12]): 0
Ragweed plant response rating (ragweed; [13]): 40
Plant response rating, Barnyardgrass (barnyardgrass [1]; [11]): 80
Plant response rating, Barnyardgrass (barnyardgrass [1]; [14]): 90
Plant response rating, Barnyardgrass (barnyardgrass [1]; [12]): 70
Barnyardgrass plant response rating (barnyardgrass [1]; [13]): 90
Plant response rating, Ducksalad (ducksalad): 90
Plant response rating, Corn (corn; [9]): 0
Plant response rating, Corn (corn; [10]): 20
Plant response rating, Ryegrass, Italian (ryegrass, Italian; [11]): 0
Plant response rating, Ryegrass, Italian (ryegrass, Italian; [12]): 0
Ryegrass, Italian plant response rating (ryegrass, Italian; [13]): 0
Plant response rating, Pigweed (pigweed; [11]): 0
Plant response rating, Pigweed (pigweed; [12]): 0
Pigweed plant response rating (pigweed; [13]): 40
Plant response rating, Barnyardgrass (barnyardgrass [2]): 40
Plant response rating, Foxtail, Giant (giant foxtail; [11]): 60
Plant response rating, Foxtail, Giant (giant foxtail; [14]): 90
Plant response rating, Foxtail, Giant (giant foxtail; [12]): 80
Foxtail, Giant plant response rating (giant foxtail; [13]): 90
Plant response rating, Kochia (kochia; [11]): 40
Plant response rating, Kochia (kochia; [12]): 50
Kochia plant response rating (kochia; [13]): 80
Plant response rating, Wheat (wheat; [8]): 0

Source: US10294202B2, “Pyrrolidinones as herbicides” (FMC Corporation, priority 2013, dated 2019)
